Reference: patent US20260124223A1, “CANCER IMMUNOTHERAPIES” (Northwestern University, priority 2022, published 2026)
Several values for one entry are separate records, joined by “and”; a condition that tells them apart may be missing. Equal values may be shown once. Read-outs that look alike come from different tables or passages of the source.

What was measured:
[1] = Pembrolizumab concentration in plasma, glioma and peritumoral brain of GBM patients (ELISA); format: in vivo, human
Protocol: (§1) Patients received additional treatment cycles with sonications in an outpatient setting in which the US device was activated by percutaneous access with a single-use transdermal needle concomitantly with the injection of 10 μL/kg of IV microbubbles (DEFINITY, Lantheus, Billerica, USA) and 200 mg of pembrolizumab and 30 mg of liposomal DOX.
Determination of the concentration of pembrolizumab in human glioma and peritumoral brain tissue Two GBM patients undergoing surgery for resection of tumor with implantation of the Sonocloud-9 US device were studied for this analysis. Pembrolizumab ELISA kit (ab237652, Abcam) was employed to determine pembrolizumab concentrations. After surgical resection, all samples were weighed. […] The rest of the experiment was done following manufacturer's kit protocol.

[2] = system: brain metastases from melanoma; experiment: Tumor volume in a melanoma brain metastasis patient, SonoCloud-1 (NCT04021420); format: in vivo, human
Source text: Analysis of SoniMel tumor volume of a brain metastatic patient. This patient was part of an ongoing clinical trial (NCT04021420) evaluating the combination of the immune checkpoint antibodies, ipilimumab and nivolumab, with BBB disruption employing the SC1 US device. The zone targeted by the skull implanted SC1 US emitter was modeled with a cylindrical region of interest (ROI) with a 10-mm diameter and 55-mm length. This ROI covered a part of the left-hemisphere tumoral mass and a part of its margin. The patient received administration every three weeks of 1 mg/kg of nivolumab (Brystol Myers Squibb) during 30 minutes of infusion and 3 mg/kg of ipilimumab (Brystol Myers Squibb) during 90 minutes of infusion prior to sonication. The SC1 US device was activated in combination with IV injection of microbubbles (0.1 mL/kg, SonoVue, Bracco) for a duration of 270 seconds at an acoustic pressure of 0.78 MPa, similar to the parameters used in a recent clinical trial in patients with recurrent GBM (Idbaih, A., et al., Clin Cancer Res 25, 3793-3801 (2019)). The evolution of the tumor volumes was evaluated for both sonicated and non-sonicated tumor masses using a semiautomatic active contour segmentation method (ITK Snap) (Yushkevich, P. A., et al., Neuroimage 31, 1116-1128 (2006)) using contrast-enhanced gadolinium T1w MR images with a threshold set at 1.25 times the median brain intensity. […]

HMC3 cells = experiment: Flow cytometry of IFNγ, HLA ABC and PD-L1 in HMC3 cells; format: cell-based, human; settings: 5-hour pulse, 72 hours, specific DOX concentrations
Protocol: (§2) Flow cytometry of PDX cell lines and HMC3 cells. PDX cell lines were kindly gifted. HMC3 cells were acquired from ATCC. GBM6, GBM63 and HMC3 cells were seeded on 6-well plates for treatment with increasing concentrations of DOX hydrochloride (D1515, Sigma Aldrich), IFN-γ (300-02, Peprotech) or 50 μM of TMZ (Accord). PDX and HMC3 cells were treated for 5 hours followed by 3 washes with PBS and cultured afterwards with Dulbecco's modified Eagle's medium (Corning) supplemented with 10% FBS (Hyclone) and 1% penicillin/streptomycin (Corning). 72 hours after treatment, PDX cells were harvested using Accutase cell detachment solution (Corning) and were stained initially with eBioscience Fixable Viability Dye eFluor 780 (Thermo Fisher) at 1:1000 dilution. Staining with HLA ABC AF-647 (311414) and HLA-DR BV421 (307636) was done for PDX cells. IFN-γ AF-700 (502520), HLA ABC FITC (311404), PD-L1 Pe-Cy7 (374506). All antibodies for this experiment were from Biolegend. Data was acquired using BD FACSymphony Flow Cytometer.

CT2A = experiment: H-2Kb expression in CT2A cells by flow cytometry; format: cell-based, mouse; settings: similar DOX concentration range, compared to no treatment
GL261 tumor-bearing mice = settings: LIPU/MB+IC+DOX
Protocol: Cell culture. […] Both cell lines were cultured in Dulbecco's modified Eagle's medium (Gibco) supplemented with 10% fetal bovine serum (Gibco), and 1% penicillin/streptomycin (Gibco) in 5% CO2 incubators at 37° C. […] QPP4 cells were maintained in Dulbecco's modified Eagle's medium/F-12 (Gibco) supplemented with B-27 (Gibco), recombinant epidermal growth factor (EGF, 20 ng/ml, PeproTech), and recombinant basic fibroblast growth factor (bFGF, 20 ng/ml, PeproTech).
Animal Experiments. […] All murine cell lines used for this study were routinely tested for mycoplasma and were confirmed negative before intracranial orthotopic injection. To perform intracranial injection of syngeneic murine glioma cell lines, mice were anesthetized with ketamine/xylazine cocktail. Artificial tears were used to prevent eye drying and protect the eye. […] Mice were monitored daily and were euthanized when they approached the endpoint (weight loss is >20% of pre-treatment body weight or loss of mobility or severe neurological disabilities such as seizure, circular motion, etc.) as described in the IACUC protocol.
LIPU/MB. […] Sonications were performed for 120 seconds using a 25,000-cycle burst at a 1 Hz pulse repetition frequency and an acoustic pressure of 0.3 MPa as measured in water. After sonications, mice were moved to a clean cage, placed upon a heating pad, and monitored until they recovered from anesthesia.

GL261 = experiment: H-2Kb expression in GL261 cells by flow cytometry; format: cell-based, mouse; settings: similar DOX concentration range, compared to no treatment
GL261-bearing mice [3] = experiment: Immunophenotyping of GL261-bearing mice treated with increasing doses of liposomal DOX with or without US/MB; format: in vivo, mouse; settings: 1 and 2 mg/kg; 5 mg/kg without US/MB
Protocol: (§3) Ultrasound-mediated BBB opening in mouse models.
(§4) After injection of glioma cells, the incision was closed using 9 mm stainless steel wound clips. On day 7 and 14 after IC implantation of glioma cell lines, mice were treated with liposomal DOX obtained from the pharmacy of Northwestern Memorial Hospital. On day 7, 10, 14, and 17 after IC injection of glioma cells, mice were treated with either […] of anti-mouse PD-1 (CD279) BE0146 (BioXcell) or rat IgG2a isotype control BE0089 (BioXcell).

CT2A-bearing mice = experiment: Survival of CT2A-bearing mice treated with aPD-1, liposomal DOX, US/MB; format: in vivo, mouse
Protocol: as §3
(§5) Cell lines and implantable syngeneic murine glioma models for survival and immunophenotyping studies. Murine GL261 cell line was acquired from the National Institutes of Health. CT2A cell line was acquired from Millipore. GL261 and CT2A were cultured in Dulbecco's modified Eagle's medium (Corning) supplemented with 10% FBS (Hyclone) and 1% penicillin/streptomycin (Corning) at 37° C. in incubators with humified atmosphere of 5% CO2 and 95% air.
as §4

[4] = DOX concentration in blood, tumor and peritumoral brain tissue of GBM patients (LC/MS); format: in vivo, human; settings: for concentration at 48 h: human, intravenous, GBM patients, 48 hours after liposomal DOX with US/MB
Protocol: as §1
Determination of the DOX concentration in blood, tumor and peritumoral brain tissue. Two GBM patients undergoing surgery for resection of tumor with implantation of the Sonocloud-9 US device were studied for this analysis. […] Sonicated and non-sonicated peritumoral brain samples were identified taking into account their location relative to the sonication field of the US device. Non-sonicated peritumoral brain samples were acquired first with the use of a new set of surgical instruments for each sample. Every peritumoral brain tissue was washed with saline solution to remove blood. These samples were sectioned into 30 mg pieces and were flash-frozen for further quantification of DOX levels. DOX was quantified in tumor, peritumoral, and plasma using LC/MS (6500 QTRAP AB Sciex equipped with a SIL-20AC XR HPLC, Shimadzu Scientific Instruments).

HMC3 = experiment: FCGR3A / FcγRIIIA expression in HMC3 cells (qRT-PCR, flow cytometry); format: cell-based, human; settings: DOX 5 hours, fresh media 72 hours
Protocol: as §2

GL261-bearing mice [5] = experiment: Survival of GL261-bearing mice treated with liposomal DOX, aPD-1, US/MB; format: in vivo, mouse
Protocol: as §3, §5, §4

GBM63 = experiment: Flow cytometry of antigen-presenting molecules in PDX cell line GBM63; format: cell-based, human; settings: 5 hours exposure, 72 hours drug-free
Protocol: as §2

recurrent GBM patients [6] = experiment: Multiplex immunofluorescence of FcγRIIIA on TAMs, pre-DOX and during-DOX GBM samples; format: in vivo, human; settings: DOX+aPD-1 with concomitant LIPU/MB, vs tissue before treatment, 4 patients
Source text: Multiplex immunofluorescence staining/cellular identification and phenotyping. The multiplex panel included the following unconjugated antibodies: GFAP (glioma cells), CD11c (antigen presenting cells), CD68 (pan monocyte/macrophage), CD163 (macrophage scavenger receptor), FcγRIIIA (Receptor binding the Fc region of IgG, CD16A). All antibodies were validated using conventional immunofluorescence (IF) staining in conjunction with the corresponding fluorophore and the spectral 4′,6-diamidino-2-pheynlindole (DAPI; ThermoFisher Scientific) counterstain. For optimal concentration and best signal/noise ratio all antibodies were tested at three different dilutions, starting with the manufacturer-recommended dilution (MRD), then MRD/2 and MRD/4. Secondary Alexa fluorophore 555 (ThermoFisher Scientific) and Alexa fluorophore 647 (ThermoFisher Scientific) were used at 1/200 and 1/400 dilutions respectively. […]
Slides are automatically scanned using the Lunaphore COMET™ with fluorescent high-power field scan (20× magnification microscope). […] The OME.TIFF images ware analyzed in Visiopharm software for immune populations' configuration and quantification.
All digitized images were analyzed using the Visiopharm software platform (Hørsholm, Denmark). […]

GBM6 = experiment: Flow cytometry of antigen-presenting molecules in PDX cell line GBM6; format: cell-based, human; settings: 5 hours exposure, 72 hours drug-free, relative to no treatment
Protocol: as §2

recurrent GBM patients [7] = experiment: Multiplex immunofluorescence of pre-treatment and on-treatment human GBM samples; settings: tumors exposed to DOX vs before DOX
[8] = mouse, in vivo
Protocol: C57BL/6 mice were employed for sonication experiments in which they were anesthetized with ketamine/xylazine cocktail intraperitoneally (ketamine 100 mg/kg, xylazine 10 mg/kg).
Determination of the concentration of nivolumab in brain from C57BL/6 mice. Non-tumor bearing C57BL/6 mice were used for this experiment. […] Nivolumab ELISA kit (ab237651, Abcam) was employed to determine nivolumab concentrations in the brain and blood. Mice were anesthetized with ketamine/xylazine cocktail and treated with artificial tears once fully anesthetized. Next, mice were treated with nivolumab through retro-orbital route. The dose used for mice was calculated based on allometric scaling which considers the animal equivalent dose based on body surface area converted from the human dose of 3 mg/kg of nivolumab (Nair, A. B. et al., J Basic Clin Pharm 7, 27-31 (2016)). After treatment with nivolumab, mice were placed in the US transducer holder for sonication as described above. Intravenous NaFI (Sigma-Aldrich) previously dissolved in PBS was administered immediately after sonication at a dose of 20 mg/kg in 100 μL. 1 and 4 hours after sonication, mice were euthanized using a CO2 chamber and brains were harvested and placed in PBS. […] Absorbance of samples (set to 450 nm) was read in Cytation 5 multi-mode reader (Biotek). […]

In the case of pembrolizumab: anti-PD-1 antibody, the “fold increase in pembrolizumab concentration, sonicated vs non-sonicated peritumoral brain regions” value ([1]; 2 GBM patients, SonoCloud-9) is reported as 2.076 fold and the “anti-PD-1 antibody concentration in the serum” value ([1]; two GBM patients, 48 hours after treatment) is reported as 39.450 µg/mL and 45.099 µg/mL.

With “ipilimumab: IgG1 anti-CTLA-4 antibody, given with nivolumab” the “tumor mass targeted by the SonoCloud-1 (sonicated)” value ([2]; ipilimumab 3 mg/kg and nivolumab 1 mg/kg prior to sonication) was “began to shrink after the second sonication” and the non-sonicated tumor mass ([2]; ipilimumab 3 mg/kg and nivolumab 1 mg/kg, until GammaKnife on day 130) was “continued to grow”.

With `COc1cccc2c1C(=O)c1c(O)c3c(c(O)c1C2=O)C[C@@](O)(C(=O)CO)C[C@@H]3O[C@H]1C[C@H](N)[C@H](O)[C@H](C)O1` [DOX, Doxorubicin] the “expression of HLA ABC” value (HMC3 cells) was “promoted”, the “expression of PD-L1” value (HMC3 cells) was “promoted” and the “production of IFNγ” value (HMC3 cells) was “promoted”. The H-2Kb expression (CT2A) was “upregulated”, the long-term survivors (GL261 tumor-bearing mice) was 16.7% and the H-2Kb expression (GL261) was “upregulated”. For the same molecule, the “IFN-γ by glioma-associated myeloid cells” value (GL261-bearing mice [3]) was “no other doses of DOX nor the 5 mg/kg of dose delivered in the absence of US/MB elicited IFN-γ”, the “survival in Cd8−/− and Cd8+/+ mice” value (CT2A-bearing mice; DOX plus anti-PD-1 antibody with US/MB, P=0.0452) was “survival benefit was only observed in mice that had intact immunity” and the long-term survival percentage (CT2A-bearing mice; anti-PD-1 antibody added to DOX plus US/MB) was 80%. For the same molecule, the “fold increase in DOX concentration, sonicated relative to non-sonicated peritumoral brain samples” value ([4]; 2 GBM patients, 48 hours, 95% CI of mean 1.406-2.659) was 2.033 fold, the concentration at 48 h ([4]; plasma, read-out: DOX plasma levels) was 8230 ng/mL and 14.2 µM and the concentration at 48 h ([4]; tumor, read-out: DOX tumor concentrations) was 146 ng/g to 2290 ng/g and 251 nM to 3.94 µM. For the same molecule, the “FCGR3A expression, times higher than in untreated microglia” value (HMC3) was ~16 times, the “percentage of CD4 IFN-γ+ TNF-α+ T cells” value (GL261-bearing mice [5]; DOX alone vs control, P=0.04) was “higher percentage” and the long-term survivors (GL261-bearing mice [5]; GL261, anti-PD-1 antibody added to DOX plus US/MB, vs DOX plus US/MB) was “same percentage of long-term survivors”. For the same molecule, the “DOX concentration range that upregulated HLA ABC and HLA-DR expression” value (GBM63) was 0.15 to 0.6 M, the “frequency of FcγRIIIA+ CD68+ and CD11c+ TAMs” value (recurrent GBM patients [6]) was “increase in the frequency” and the “DOX concentration range that upregulated HLA ABC and HLA DR expression” value (GBM6) was 0.15 to 1.2 M. The “TMEM119+ cells expressing HLA I” value (recurrent GBM patients [7]; P=0.0092) was “increased number” and the “CD163+ cells expressing HLA I” value (recurrent GBM patients [7]; P=0.0712) was “increased number”.

With “nivolumab: human IgG4 antibody that binds the PD-1 receptor” the “nivolumab concentration in the plasma” value [8] was “similar”.
